# Assays:
# Assay in all cases: Field trial, in planta tolerance to glyphosate, injury assessed seven days after application
# Type in all cases: in vivo, Glycine max
# [1] = system: Soybean event 8291-4524 expressing 2mEPSPS (construct pDAB8291); details: 7 days after application
# Description: (§1) Soybean events containing the 2mEPSPv2 expression cassette construct from pDAB8291 are tolerant to glyphosate. Field trials were performed during the 2009 and 2010 growing seasons. The plots were planted with the transgenic soybean seed which had been produced from the transformation with pDAB8291 and non-transgenic soybean (cv Maverick) which was used as a control. Field grown soybean plants from the T2 and T4 generation were sprayed with high rates of glyphosate. Glyphosate (DURANGO® herbicide Dow AgroSciences, Indianapolis, Ind.) applications were made at the V3 or V5 stage of plant development at a rate of 2,240 g ae/ha. Seven days after glyphosate application, the plants were assessed for injury.
# [2] = system: Soybean event 8291-4536 expressing 2mEPSPS (construct pDAB8291); details: 7 days after application
# Description: as §1
# [3] = system: non-transgenic soybean (cv Maverick); details: Maverick non-transgenic control, 7 days after application
# Description: as §1
# [4] = system: soybean plants transformed with pDAB8291; details: T2 and T4 field grown plants, 2,240 g ae/ha at V3 or V5, seven days after application
# Description: as §1
smiles,measurement,setting,value
"O=C(O)CNCP(=O)(O)O [Glyphosate, N-phosphonomethylglycine]",Adjusted Mean Injury 7daa(%),"[1]; event 8291-4524, T2 generation, application at V3, 2,240 g ae/ha glyphosate",10%
same,Adjusted Mean Injury 7daa(%),"[1]; event 8291-4524, T4 generation, application at V5, 2,240 g ae/ha glyphosate",0.5%
same,Adjusted Mean Injury 7daa(%),"[2]; event 8291-4536, T2 generation, application at V3, 2,240 g ae/ha glyphosate",3.5%
same,Adjusted Mean Injury 7daa(%),"[2]; event 8291-4536, T4 generation, application at V5, 2,240 g ae/ha glyphosate",0.75%
same,Adjusted Mean Injury 7daa(%),"[3]; T2 trial, application at V3, 2,240 g ae/ha glyphosate",100%
same,Adjusted Mean Injury 7daa(%),"[3]; T4 trial, application at V5, 2,240 g ae/ha glyphosate",100%
same,injury (damage) to plants as compared to Maverick controls,[4],Minimal damage

# Source: US9018451B2, “Optimized expression of glyphosate resistance encoding nucleic acid molecules in plant cells” (M S Technologies, LLC, priority 2010, dated 2015)
